Biological target: T1, ER (Homo sapiens, UniProt P03372)
T1 construct: host or cells: T47D and MCF7 human breast cancer cells
T1 sequence (P03372 1-595): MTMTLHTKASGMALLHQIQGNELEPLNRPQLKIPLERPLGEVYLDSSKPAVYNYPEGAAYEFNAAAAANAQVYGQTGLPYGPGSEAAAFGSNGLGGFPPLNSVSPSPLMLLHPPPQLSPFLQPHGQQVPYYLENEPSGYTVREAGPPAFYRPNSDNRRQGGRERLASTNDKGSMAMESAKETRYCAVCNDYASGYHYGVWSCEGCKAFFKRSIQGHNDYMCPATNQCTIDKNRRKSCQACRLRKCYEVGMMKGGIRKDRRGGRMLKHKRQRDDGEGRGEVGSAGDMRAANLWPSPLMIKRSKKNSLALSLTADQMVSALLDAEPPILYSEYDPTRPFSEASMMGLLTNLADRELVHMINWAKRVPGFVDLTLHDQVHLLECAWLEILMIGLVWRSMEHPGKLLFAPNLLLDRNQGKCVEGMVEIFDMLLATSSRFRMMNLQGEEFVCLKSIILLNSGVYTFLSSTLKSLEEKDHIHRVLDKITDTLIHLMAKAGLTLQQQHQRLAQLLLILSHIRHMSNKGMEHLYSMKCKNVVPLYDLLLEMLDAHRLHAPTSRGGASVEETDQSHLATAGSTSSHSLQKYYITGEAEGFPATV
Test: ER degradation activity, in-cell western blot analysis in T47D cells
Format: cell-based
Conditions: 16 hours, Table A does not say which cell line (T47D or MCF7), read-out: Potency (DC50)
Procedure, shortened: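 Cells were seeded overnight, exposed to diluted compounds for 16 hours, then stained with primary antibodies and with infrared-labelled secondary antibodies (1:1000, 1 h RT). Plates were scanned on a CLX reader, and ER levels were normalised to DMSO-treated wells.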

| DC50 | Structure (SMILES) |
| --- | --- |
| < 10 nM | C[C@@H]1Cc2c([nH]c3ccccc23)[C@@H](c2c(F)cc(C3CCC(C(=O)N4CCC(N5Cc6cc7c(cc6C5)C(=O)N(C5CCC(=O)NC5=O)C7=O)CC4)CC3)cc2F)N1CC(F)F (stereo partly drawn) [E246, 6-(1-(4-(4-((1R,3R)-2-(2,2-difluoroethyl)-3-methyl-2,3,4,9-tetrahydro-1H-pyrido[3,4-b]indol-1-yl)-3,5-difluorophenyl)cyclohexane-1-carbonyl)piperidin-4-yl)-2-(2,6-dioxopiperidin-3-yl)-6,7-dihydropyrrolo[3,4-f]isoindole-1,3(2H,5H)-dione] |
| 10 to 100 nM | C[C@@H]1Cc2c([nH]c3ccccc23)[C@@H](c2c(F)cc(C3CCC(C(=O)N4CCC(F)(CN5Cc6cc7c(cc6C5)C(=O)N(C5CCC(=O)NC5=O)C7=O)CC4)CC3)cc2F)N1CC(F)F (stereo partly drawn) [E247, 6-((1-(4-(4-((1R,3R)-2-(2,2-difluoroethyl)-3-methyl-2,3,4,9-tetrahydro-1H-pyrido[3,4-b]indol-1-yl)-3,5-difluorophenyl)cyclohexane-1-carbonyl)-4-fluoropiperidin-4-yl)methyl)-2-(2,6-dioxopiperidin-3-yl)-6,7-dihydropyrrolo[3,4-f]isoindole-1,3(2H,5H)-dione] |
| > 100 nM | C[C@@H]1Cc2c([nH]c3ccccc23)[C@@H](c2c(F)cc(C3CCC(C(=O)N4CCC(CN5Cc6cc7c(cc6C5)C(=O)N(C5CCC(=O)NC5=O)C7=O)CC4)CC3)cc2F)N1CC(F)F (stereo partly drawn) [E248, 6-((1-(4-(4-((1R,3R)-2-(2,2-difluoroethyl)-3-methyl-2,3,4,9-tetrahydro-1H-pyrido[3,4-b]indol-1-yl)-3,5-difluorophenyl)cyclohexane-1-carbonyl)piperidin-4-yl)methyl)-2-(2,6-dioxopiperidin-3-yl)-6,7-dihydropyrrolo[3,4-f]isoindole-1,3(2H,5H)-dione] |
| > 100 nM | C[C@@H]1Cc2c([nH]c3ccccc23)[C@@H](c2c(F)cc(C3CCC(C(=O)N4CC(N5Cc6cc7c(cc6C5)C(=O)N(C5CCC(=O)NC5=O)C7=O)C4)CC3)cc2F)N1CC(F)F (stereo partly drawn) [E249, 6-(1-(4-(4-((1R,3R)-2-(2,2-difluoroethyl)-3-methyl-2,3,4,9-tetrahydro-1H-pyrido[3,4-b]indol-1-yl)-3,5-difluorophenyl)cyclohexane-1-carbonyl)azetidin-3-yl)-2-(2,6-dioxopiperidin-3-yl)-6,7-dihydropyrrolo[3,4-f]isoindole-1,3(2H,5H)-dione] |
| < 10 nM | C[C@@H]1Cc2c([nH]c3ccccc23)[C@@H](c2c(F)cc(C3CCC(C(=O)N4CC(CN5Cc6cc7c(cc6C5)C(=O)N(C5CCC(=O)NC5=O)C7=O)C4)CC3)cc2F)N1CC(F)F (stereo partly drawn) [E250, 6-((1-(4-(4-((1R,3R)-2-(2,2-difluoroethyl)-3-methyl-2,3,4,9-tetrahydro-1H-pyrido[3,4-b]indol-1-yl)-3,5-difluorophenyl)cyclohexane-1-carbonyl)azetidin-3-yl)methyl)-2-(2,6-dioxopiperidin-3-yl)-6,7-dihydropyrrolo[3,4-f]isoindole-1,3(2H,5H)-dione] |
| > 100 nM | C[C@@H]1Cc2c([nH]c3ccccc23)[C@@H](c2c(F)cc(-c3ccc(CN4CCC(N5Cc6cc7c(cc6C5)C(=O)N(C5CCC(=O)NC5=O)C7=O)CC4)nc3)cc2F)N1CC(F)F (stereo partly drawn) [E326, 6-(1-((5-(4-((1R,3R)-2-(2,2-difluoroethyl)-3-methyl-2,3,4,9-tetrahydro-1H-pyrido[3,4-b]indol-1-yl)-3,5-difluorophenyl)pyridin-2-yl)methyl)piperidin-4-yl)-2-(2,6-dioxopiperidin-3-yl)-6,7-dihydropyrrolo[3,4-f]isoindole-1,3(2H,5H)-dione] |
| > 100 nM | O=C1CCC(N2C(=O)c3cc4c(cc3C2=O)CN(c2ncc(CN3CC(Oc5ccc([C@@H]6c7ccc(O)cc7CC[C@@H]6c6ccccc6)cc5)C3)cn2)C4)C(=O)N1 (stereo partly drawn) [E327, 2-(2,6-dioxopiperidin-3-yl)-6-(5-((3-(4-((1R,2S)-6-hydroxy-2-phenyl-1,2,3,4-tetrahydronaphthalen-1-yl)phenoxy)azetidin-1-yl)methyl)pyrimidin-2-yl)-6,7-dihydropyrrolo[3,4-f]isoindole-1,3(2H,5H)-dione] |
| > 100 nM | O=C1CCC(N2C(=O)c3cc4c(cc3C2=O)CN(c2ccc(CN3CC(Oc5ccc([C@@H]6c7ccc(O)cc7CC[C@@H]6c6ccccc6)cc5)C3)cn2)C4)C(=O)N1 (stereo partly drawn) [E328, 2-(2,6-dioxopiperidin-3-yl)-6-(5-((3-(4-((1R,2S)-6-hydroxy-2-phenyl-1,2,3,4-tetrahydronaphthalen-1-yl)phenoxy)azetidin-1-yl)methyl)pyridin-2-yl)-6,7-dihydropyrrolo[3,4-f]isoindole-1,3(2H,5H)-dione] |
| 10 to 100 nM | O=C1CCC(N2C(=O)c3cc4c(cc3C2=O)CN(Cc2ccc(N3CC(Oc5ccc([C@@H]6c7ccc(O)cc7CC[C@@H]6c6ccccc6)cc5)C3)nc2)C4)C(=O)N1 (stereo partly drawn) [E329, 2-(2,6-dioxopiperidin-3-yl)-6-((6-(3-(4-((1R,2S)-6-hydroxy-2-phenyl-1,2,3,4-tetrahydronaphthalen-1-yl)phenoxy)azetidin-1-yl)pyridin-3-yl)methyl)-6,7-dihydropyrrolo[3,4-f]isoindole-1,3(2H,5H)-dione] |
| > 100 nM | O=C1CCC(N2C(=O)c3cc4c(cc3C2=O)CN(Cc2cnc(N3CC(Oc5ccc([C@@H]6c7ccc(O)cc7CC[C@@H]6c6ccccc6)cc5)C3)nc2)C4)C(=O)N1 (stereo partly drawn) [E330, 2-(2,6-dioxopiperidin-3-yl)-6-((2-(3-(4-((1R,2S)-6-hydroxy-2-phenyl-1,2,3,4-tetrahydronaphthalen-1-yl)phenoxy)azetidin-1-yl)pyrimidin-5-yl)methyl)-6,7-dihydropyrrolo[3,4-f]isoindole-1,3(2H,5H)-dione] |
| > 100 nM | O=C1CCC(N2C(=O)c3cc4c(cc3C2=O)CN(CC(=O)NC2CCN(c3ccc([C@@H]5c6ccc(O)cc6CC[C@@H]5c5ccccc5)cc3)CC2)C4)C(=O)N1 (stereo partly drawn) [E331, 2-(6-(2,6-dioxopiperidin-3-yl)-5,7-dioxo-3,5,6,7-tetrahydropyrrolo[3,4-f]isoindol-2(1H)-yl)-N-(1-(4-((1R,2S)-6-hydroxy-2-phenyl-1,2,3,4-tetrahydronaphthalen-1-yl)phenyl)piperidin-4-yl)acetamide] |
| > 100 nM | O=C1CCC(N2C(=O)c3cc4c(cc3C2=O)CN(CCC(=O)NC2CCN(c3ccc([C@@H]5c6ccc(O)cc6CC[C@@H]5c5ccccc5)cc3)CC2)C4)C(=O)N1 (stereo partly drawn) [E332, 3-(6-(2,6-dioxopiperidin-3-yl)-5,7-dioxo-3,5,6,7-tetrahydropyrrolo[3,4-f]isoindol-2(1H)-yl)-N-(1-(4-((1R,2S)-6-hydroxy-2-phenyl-1,2,3,4-tetrahydronaphthalen-1-yl)phenyl)piperidin-4-yl)propanamide] |
| > 100 nM | CN(CC1CN(c2ccc([C@@H]3c4ccc(O)cc4CC[C@@H]3c3ccccc3)cc2)C1)C1CCC(N2Cc3cc4c(cc3C2)C(=O)N(C2CCC(=O)NC2=O)C4=O)CC1 (stereo partly drawn) [E333, 2-(2,6-dioxopiperidin-3-yl)-6-(4-(((1-(4-((1R,2S)-6-hydroxy-2-phenyl-1,2,3,4-tetrahydronaphthalen-1-yl)phenyl)azetidin-3-yl)methyl)(methyl)amino)cyclohexyl)-6,7-dihydropyrrolo[3,4-f]isoindole-1,3(2H,5H)-dione] |
| > 100 nM | O=C1CCC(N2C(=O)c3cc4c(cc3C2=O)CN([C@H]2CC[C@@H](NC3CCN(c5ccc([C@@H]6c7ccc(O)cc7CC[C@@H]6c6ccccc6)cc5)CC3)CC2)C4)C(=O)N1 (stereo partly drawn) [E334, 2-(2,6-dioxopiperidin-3-yl)-6-((1S,4s)-4-((1-(4-((1R,2S)-6-hydroxy-2-phenyl-1,2,3,4-tetrahydronaphthalen-1-yl)phenyl)piperidin-4-yl)amino)cyclohexyl)-6,7-dihydropyrrolo[3,4-f]isoindole-1,3(2H,5H)-dione] |
| > 100 nM | C[C@@H]1Cc2cc(O)ccc2[C@@H](c2c(F)cc(N3CC4(CCN(CC(=O)N5Cc6cc7c(cc6C5)C(=O)N(C5CCC(=O)NC5=O)C7=O)CC4)C3)cc2F)N1CC(C)(F)F (stereo partly drawn) [E 25, 6-(2-(2-(4-((1S,3R)-2-(2,2-difluoropropyl)-6-hydroxy-3-methyl-1,2,3,4-tetrahydroisoquinolin-1-yl)-3,5-difluorophenyl)-2,7-diazaspiro[3.5]nonan-7-yl)acetyl)-2-(2,6-dioxopiperidin-3-yl)-6,7-dihydropyrrolo[3,4-f]isoindole-1,3(2H,5H)-dione] |
| > 100 nM | C[C@@H]1Cc2cc(O)ccc2[C@@H](c2c(F)cc(N3CC4(CCN(CC(=O)N5Cc6cc7c(cc6C5)C(=O)N(C5CCC(=O)NC5=O)C7)CC4)C3)cc2F)N1CC(C)(F)F (stereo partly drawn) [E 26, 3-(6-(2-(2-(4-((1S,3R)-2-(2,2-difluoropropyl)-6-hydroxy-3-methyl-1,2,3,4-tetrahydroisoquinolin-1-yl)-3,5-difluorophenyl)-2,7-diazaspiro[3.5]nonan-7-yl)acetyl)-1-oxo-3,5,6,7-tetrahydropyrrolo[3,4-f]isoindol-2(1H)-yl)piperidine-2,6-dione] |

Reference: US20240190880A1 (THE REGENTS OF THE UNIVERSITY OF MICHIGAN, priority 2021, published 2024)
